This is an account of results in patent US20160158200A1, “Combinations of Hepatitis C Virus Inhibitors” (priority 2013, published 2016).

For this assay, the system named is HCV genotype-1a variant with glutamine 30 changed to glutamate in the NS5A protein. The class given is cell-based. The following applies: test compound titrated with BMS-790052 fixed at 200 nM; genotype 1a Q30E replicon. The method, boiled down:
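Synergy was assessed by combining several fixed amounts of an NS5A-targeting compound with a titration of the second compound of interest.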
(In antiviral work, replicon cells carry a viral genome segment that copies itself.)

Turning to `COC(=O)N[C@H](CC(C)C)C(=O)N[C@H](c1ncc(-c2ccc(-c3ccc(-c4cnc([C@@H](NC(=O)[C@@H](CC(C)C)NC(=O)OC)C(C)C)[nH]4)cc3)cc2)[nH]1)C(C)C` [Compound P-105], the “Fold-Synergistic 1a (Q30E)” value is given as more than 100 fold.

For the compound `COC(=O)N[C@H](Cc1ccccc1)C(=O)N[C@H](c1ncc(-c2ccc(-c3ccc(-c4cnc([C@@H](NC(=O)[C@@H](Cc5ccccc5)NC(=O)OC)C(C)C)[nH]4)cc3)cc2)[nH]1)C(C)C` [Compound P-106], the “Fold-Synergistic 1a (Q30E)” value is reported as more than 100 fold. As for `COC(=O)N(C)[C@H](C(=O)N[C@H](c1ncc(-c2ccc(-c3ccc(-c4cnc([C@@H](NC(=O)[C@H](C(C)C)N(C)C(=O)OC)C(C)C)[nH]4)cc3)cc2)[nH]1)C(C)C)C(C)C` [Compound P-107], the “Fold-Synergistic 1a (Q30E)” value is reported as more than 100 fold.

With `CC(C)[C@H](NC(=O)[C@H]1Cc2ccccc21)c1ncc(-c2ccc(-c3ccc(-c4cnc([C@@H](NC(=O)[C@H]5Cc6ccccc65)C(C)C)[nH]4)cc3)cc2)[nH]1` [Compound P-109], the “Fold-Synergistic 1a (Q30E)” value was more than 100 fold.

Regarding `CC(C)[C@H](NC(=O)[C@@H]1Cc2ccccc21)c1ncc(-c2ccc(-c3ccc(-c4cnc([C@@H](NC(=O)[C@@H]5Cc6ccccc65)C(C)C)[nH]4)cc3)cc2)[nH]1` [Compound P-110], the “Fold-Synergistic 1a (Q30E)” value was more than 100 fold. Then `CC(C)[C@H](NC(=O)C(=O)C1(C)CCC(F)(F)CC1)c1ncc(-c2ccc(-c3ccc(-c4cnc([C@@H](NC(=O)C(=O)C5(C)CCC(F)(F)CC5)C(C)C)[nH]4)cc3)cc2)[nH]1` [Compound P-112], with more than 100 fold. With `COc1ccc(C(=O)C(=O)N[C@H](c2ncc(-c3ccc(-c4ccc(-c5cnc([C@@H](NC(=O)C(=O)c6ccc(OC)c(Cl)c6)C(C)C)[nH]5)cc4)cc3)[nH]2)C(C)C)cc1Cl` [Compound P-113] the figure was more than 100 fold.

With `CC(C)[C@H](NC(=O)C(=O)C1(C)CCCC1)c1ncc(-c2ccc(-c3ccc(-c4cnc([C@@H](NC(=O)C(=O)C5(C)CCCC5)C(C)C)[nH]4)cc3)cc2)[nH]1` [Compound P-114], the “Fold-Synergistic 1a (Q30E)” value is reported as more than 100 fold. As for `CC(C)[C@H](NC(=O)C(=O)C1(C)CCC1)c1ncc(-c2ccc(-c3ccc(-c4cnc([C@@H](NC(=O)C(=O)C5(C)CCC5)C(C)C)[nH]4)cc3)cc2)[nH]1` [Compound P-115], the “Fold-Synergistic 1a (Q30E)” value is more than 100 fold. `COC1(C(=O)C(=O)N[C@H](c2ncc(-c3ccc(-c4ccc(-c5cnc([C@@H](NC(=O)C(=O)C6(OC)CCC6)C(C)C)[nH]5)cc4)cc3)[nH]2)C(C)C)CCC1` [Compound P-116]: the “Fold-Synergistic 1a (Q30E)” value was more than 100 fold.

With `CCOC(C)(C)C(=O)C(=O)N[C@H](c1ncc(-c2ccc(-c3ccc(-c4cnc([C@@H](NC(=O)C(=O)C(C)(C)OCC)C(C)C)[nH]4)cc3)cc2)[nH]1)C(C)C` [Compound P-117], the “Fold-Synergistic 1a (Q30E)” value was more than 100 fold. In the case of `CC(C)[C@H](NC(=O)C(=O)C1(C)CCCO1)c1ncc(-c2ccc(-c3ccc(-c4cnc([C@@H](NC(=O)C(=O)C5(C)CCCO5)C(C)C)[nH]4)cc3)cc2)[nH]1` (some centres unmarked) [Compound P-118], the “Fold-Synergistic 1a (Q30E)” value is more than 100 fold. With `COc1cccc(C(=O)C(=O)N[C@H](c2ncc(-c3ccc(-c4ccc(-c5cnc([C@@H](NC(=O)C(=O)c6cccc(OC)c6F)C(C)C)[nH]5)cc4)cc3)[nH]2)C(C)C)c1F` [Compound P-119] the figure was more than 100 fold. Consider `CC(C)[C@H](NC(=O)C(=O)c1ncccc1F)c1ncc(-c2ccc(-c3ccc(-c4cnc([C@@H](NC(=O)C(=O)c5ncccc5F)C(C)C)[nH]4)cc3)cc2)[nH]1` [Compound P-120], for which the “Fold-Synergistic 1a (Q30E)” value is more than 100 fold. Consider `CC(C)[C@H](NC(=O)C(=O)c1ccncc1F)c1ncc(-c2ccc(-c3ccc(-c4cnc([C@@H](NC(=O)C(=O)c5ccncc5F)C(C)C)[nH]4)cc3)cc2)[nH]1` [Compound P-121], for which the “Fold-Synergistic 1a (Q30E)” value is more than 100 fold. Turning to `CC(C)[C@H](NC(=O)C(=O)c1ccccc1OC(F)F)c1ncc(-c2ccc(-c3ccc(-c4cnc([C@@H](NC(=O)C(=O)c5ccccc5OC(F)F)C(C)C)[nH]4)cc3)cc2)[nH]1` [Compound P-122], the “Fold-Synergistic 1a (Q30E)” value was more than 100 fold. Regarding `COC1(C(=O)C(=O)N[C@H](c2ncc(-c3ccc(-c4ccc(-c5cnc([C@@H](NC(=O)C(=O)C6(OC)CC6)C(C)C)[nH]5)cc4)cc3)[nH]2)C(C)C)CC1` [Compound P-123], the “Fold-Synergistic 1a (Q30E)” value is reported as more than 100 fold. With `CC(C)[C@H](NC(=O)C(=O)C(C)(C)C(F)F)c1ncc(-c2ccc(-c3ccc(-c4cnc([C@@H](NC(=O)C(=O)C(C)(C)C(F)F)C(C)C)[nH]4)cc3)cc2)[nH]1` [Compound P-124] the figure was more than 100 fold; with `CC(C)[C@H](NC(=O)C(=O)C1(O)CCC(F)(F)CC1)c1ncc(-c2ccc(-c3ccc(-c4cnc([C@@H](NC(=O)C(=O)C5(O)CCC(F)(F)CC5)C(C)C)[nH]4)cc3)cc2)[nH]1` [Compound P-125], more than 100 fold.

As to `COC1(C(=O)C(=O)N[C@H](c2ncc(-c3ccc(-c4ccc(-c5cnc([C@@H](NC(=O)C(=O)C6(OC)CCC(F)(F)CC6)C(C)C)[nH]5)cc4)cc3)[nH]2)C(C)C)CCC(F)(F)CC1` [Compound P-126], the “Fold-Synergistic 1a (Q30E)” value was more than 100 fold. With `CC(C)[C@H](NC(=O)C(=O)C1(CF)CCC(F)(F)CC1)c1ncc(-c2ccc(-c3ccc(-c4cnc([C@@H](NC(=O)C(=O)C5(CF)CCC(F)(F)CC5)C(C)C)[nH]4)cc3)cc2)[nH]1` [Compound P-127], the “Fold-Synergistic 1a (Q30E)” value is recorded as more than 100 fold.

For `CC(C)[C@H](NC(=O)C(=O)C1(CO)CCC(F)(F)CC1)c1ncc(-c2ccc(-c3ccc(-c4cnc([C@@H](NC(=O)C(=O)C5(CO)CCC(F)(F)CC5)C(C)C)[nH]4)cc3)cc2)[nH]1` [Compound P-128], the “Fold-Synergistic 1a (Q30E)” value was more than 100 fold. Take `CC(C)[C@H](NC(=O)C(=O)C1CC2CCC(C1)C2(F)F)c1ncc(-c2ccc(-c3ccc(-c4cnc([C@@H](NC(=O)C(=O)C5CC6CCC(C5)C6(F)F)C(C)C)[nH]4)cc3)cc2)[nH]1` (some centres unmarked) [Compound P-129]: the “Fold-Synergistic 1a (Q30E)” value is more than 100 fold.

On to `CC(C)[C@H](NC(=O)N1CCC(F)(F)CC1)c1nc(-c2ccc(-c3ccc(-c4c[nH]c([C@@H](NC(=O)N5CCC(F)(F)CC5)C(C)C)n4)cc3)cc2)c[nH]1` [Compound P-130], for which the “Fold-Synergistic 1a (Q30E)” value is reported as more than 100 fold. As to `O=C(N1CCC(F)(F)CC1)N1CCC[C@H]1c1ncc(-c2ccc(-c3ccc(-c4cnc([C@@H]5CCCN5C(=O)N5CCC(F)(F)CC5)[nH]4)cc3)cc2)[nH]1` [Compound P-131], the “Fold-Synergistic 1a (Q30E)” value is given as more than 100 fold. In the case of `COC1(C(=O)N[C@H](c2ncc(-c3ccc(-c4ccc(-c5cnc([C@@H](NC(=O)C6(OC)CCC(F)(F)CC6)C6(C)CC6)[nH]5)cc4)cc3)[nH]2)C2(C)CC2)CCC(F)(F)CC1` [Compound P-132], the “Fold-Synergistic 1a (Q30E)” value is more than 100 fold. As for `CC1(C(=O)N[C@H](c2ncc(-c3ccc(-c4ccc(-c5cnc([C@@H](NC(=O)C6(C)CCC(F)(F)CC6)C6(C)CC6)[nH]5)cc4)cc3)[nH]2)C2(C)CC2)CCC(F)(F)CC1` [Compound P-133], the “Fold-Synergistic 1a (Q30E)” value is more than 100 fold. On to `CC1([C@H](NC(=O)N2CCC(F)(F)CC2)c2nc(-c3ccc(-c4ccc(-c5c[nH]c([C@@H](NC(=O)N6CCC(F)(F)CC6)C6(C)CC6)n5)cc4)cc3)c[nH]2)CC1` [Compound P-135], for which the “Fold-Synergistic 1a (Q30E)” value was more than 100 fold. With `O=C(N1CCC(F)(F)CC1)C1(c2nc(-c3ccc(-c4ccc(-c5c[nH]c(C6(C(=O)N7CCC(F)(F)CC7)CCC6)n5)cc4)cc3)c[nH]2)CCC1` [Compound P-137] the figure was more than 10 fold; with `CC(C)(C)[C@H](NC(=O)OC1CCC(F)(F)CC1)c1nc(-c2ccc(-c3ccc(-c4c[nH]c([C@@H](NC(=O)OC5CCC(F)(F)CC5)C(C)(C)C)n4)cc3)cc2)c[nH]1` [Compound P-138], more than 100 fold.

For the compound `CC(C)(C)[C@H](NC(=O)C1(C2(O)CCC(F)(F)CC2)CC1)c1nc(-c2ccc(-c3ccc(-c4c[nH]c([C@@H](NC(=O)C5(C6(O)CCC(F)(F)CC6)CC5)C(C)(C)C)n4)cc3)cc2)c[nH]1` [Compound P-146], the “Fold-Synergistic 1a (Q30E)” value was more than 100 fold. For `CC(C)(C)[C@H](NC(=O)C1(C(=O)N2CCC(F)(F)CC2)CC1)c1nc(-c2ccc(-c3ccc(-c4c[nH]c([C@@H](NC(=O)C5(C(=O)N6CCC(F)(F)CC6)CC5)C(C)(C)C)n4)cc3)cc2)c[nH]1` [Compound P-148], the “Fold-Synergistic 1a (Q30E)” value is recorded as more than 100 fold. With `CC(C)(C)[C@H](NC(=O)C(C)(C)C1(O)CCC(F)(F)CC1)c1nc(-c2ccc(-c3ccc(-c4c[nH]c([C@@H](NC(=O)C(C)(C)C5(O)CCC(F)(F)CC5)C(C)(C)C)n4)cc3)cc2)c[nH]1` [Compound P-149] the figure was more than 100 fold; with `CC(C)(C(=O)N[C@H](c1nc(-c2ccc(-c3ccc(-c4c[nH]c([C@@H](NC(=O)C(C)(C)C5CCC(F)(F)CC5)C(C)(C)C)n4)cc3)cc2)c[nH]1)C(C)(C)C)C1CCC(F)(F)CC1` [Compound P-150], more than 100 fold. Then `CC1(C(NC(=O)C2(O)CCC(F)(F)CC2)c2nc(-c3ccc(-c4ccc(-c5c[nH]c(C(NC(=O)C6(O)CCC(F)(F)CC6)C6(C)CC6)n5)cc4)cc3)c[nH]2)CC1.O=C(O)C(F)(F)F.O=C(O)C(F)(F)F` (centres unmarked) [Compound P-151], with more than 100 fold.

With `CC1(C)COC(C)(C(=O)N[C@H](c2nc(-c3ccc(-c4ccc(-c5c[nH]c([C@@H](NC(=O)C6(C)OCC(C)(C)CO6)C(C)(C)C)n5)cc4)cc3)c[nH]2)C(C)(C)C)OC1` [Compound P-154], the “Fold-Synergistic 1a (Q30E)” value is more than 100 fold. As to `CC(C)(C)[C@H](NC(=O)C(C)(C)C1(O)CCCCC1)c1nc(-c2ccc(-c3ccc(-c4c[nH]c([C@@H](NC(=O)C(C)(C)C5(O)CCCCC5)C(C)(C)C)n4)cc3)cc2)c[nH]1` [Compound P-160], the “Fold-Synergistic 1a (Q30E)” value is given as more than 100 fold.

For the compound `COC(=O)NC(C)(C)C(=O)N[C@H](c1nc(-c2ccc(-c3ccc(-c4c[nH]c([C@@H](NC(=O)C(C)(C)NC(=O)OC)C(C)(C)C)n4)cc3)cc2)c[nH]1)C(C)(C)C` [Compound Q-1], the “Fold-Synergistic 1a (Q30E)” value is reported as more than 100 fold.
